How the values were obtained:
[1] = tested on: TNF-α; experiment: LPS-induced TNF-α production from human PBMC; type: cell-based; settings: LPS 100 ng/ml
Procedure: Lipopolysaccharide (LPS) is an endotoxin produced by gram-negative bacteria such as E. coli which induces production of many pro-inflammatory cytokines, including TNF-α. In peripheral blood mononuclear cells (PBMC), the TNF-α produced in response to LPS is derived from monocytes, which comprise approximately 5-20% of the total PBMC. Compounds were tested for the ability to inhibit LPS-induced TNF-α production from human PBMC as previously described (Muller et al., 1996, J. Med. Chem., 39:3238). PBMC from normal donors were obtained by Ficoll Hypaque (Pharmacia, Piscataway, NJ, USA) density centrifugation. Cells were cultured in RPMI (Life Technologies, Grand Island, NY, USA) supplemented with 10% AB± human serum (Gemini Bio-products, Woodland, CA, USA), 2 mM L-glutamine, 100 U/ml penicillin, and 100 µg/ml streptomycin (Life Technologies).
PBMC (2 x 10^5 cells) were plated in 96-well flat-bottom Costar tissue culture plates (Coming, NY, USA) in triplicate. Cells were stimulated with LPS (Sigma, St. Louis, MO, USA) at 100 ng/ml in the absence or presence of compounds. Compounds (Celgene Corp., Warren, NJ, USA) were dissolved in DMSO (Sigma) and further dilutions were done in culture medium immediately before use. The final DMSO concentration in all samples was 0.25%. Compounds were added to cells one hour before LPS stimulation. […]

[2] = biological target: PDE3 from human platelets (Homo sapiens, UniProt Q14432); experiment: PDE3 enzyme assay; type: biochemical
[3] = tested on: conscious ferret; experiment: Emesis and behavioral changes in conscious ferret; type: in vivo, ferrets (Mustela Pulorius Euro); settings: for Ataxia / Backward walking / Flattened posture / Lip licking / Mouth clawing / Panting / Retches / Salivation / Vomits: severity (number of animals that responded)
Procedure: The conscious ferret model has been used to investigate anti-inflammatory, emetic and behavioral effects of PDE4 inhibitors when administered by the oral (p.o.) route. From these experiments, a therapeutic index (TI) for each PDE4 inhibitor may be determined. The TI has been calculated by dividing the threshold dose for causing emetic episodes and behavioral changes by the anti-inflammatory dose (dose that causes 50% inhibition of the LPS-induced neutrophilia).
PDE4 inhibitors were administered orally (p.o.), at doses initially of […], but subsequently up to 30 mg/kg in order to establish whether the TI was 10 or higher, and/or at lower doses to establish the minimum dose to cause 50% inhibition of neutrophilia. Ferrets were fasted overnight but allowed free access to water. The animals were orally dosed with vehicle or PDE4 inhibitor using a 15 cm dosing needle that was passed down the back of the throat into the oesophagus. After dosing, the animals were returned to holding cages fitted with Perspex doors to allow observation, and given free access to water. After dosing, the animals were constantly observed and any emesis or behavioral changes were recorded. The animals were allowed access to food 60 to 90 minutes after p.o. dosing.
Thirty minutes after p.o. dosing with compound or vehicle control, the ferrets were placed into sealed Perspex containers and exposed to an aerosol of LPS (100 µg/ml) for 10 minutes. Aerosols of LPS were generated by a nebulizer (DeVilbiss, USA) and this was directed into the Perspex exposure chamber. Following a 10 minute exposure period, the animals were returned to the holding cages and allowed free access to water, and at a later stage, food. Observation continued for a period of at least 2.5 hours post p.o. dosing and emetic episodes and behavioral changes were recorded.
2. Emetic episodes - the number of vomits and retches were counted.
3. Behavioral changes - the following behavioral effects were noted: salivation, panting, mouth clawing, flattened posture, ataxia, arched back and backward walking. Any behavioral changes were semi-quantified by applying a severity rating (mild, moderate or severe).
4. The TI was calculated as the highest dose found to not cause emetic episodes divided by the lowest dose found to inhibit pulmonary neutrophilia by 50% or more.
Numbers in parentheses refer to the number of animals that responded. The numbers of animals in each group range from 4 to 22.
From these experiments, a therapeutic index (TI) was determined for each compound by dividing the threshold dose for inducing emetic episodes by the ED50 value for inhibiting the pulmonary neutrophilia. […] Table 4. Summary of the effective doses (ED50) for inhibition of LPS-induced pulmonary neutrophilia and induction of emesis and the therapeutic index derived from these values

PDE3 from human platelets, sequence (Q14432 whole entry): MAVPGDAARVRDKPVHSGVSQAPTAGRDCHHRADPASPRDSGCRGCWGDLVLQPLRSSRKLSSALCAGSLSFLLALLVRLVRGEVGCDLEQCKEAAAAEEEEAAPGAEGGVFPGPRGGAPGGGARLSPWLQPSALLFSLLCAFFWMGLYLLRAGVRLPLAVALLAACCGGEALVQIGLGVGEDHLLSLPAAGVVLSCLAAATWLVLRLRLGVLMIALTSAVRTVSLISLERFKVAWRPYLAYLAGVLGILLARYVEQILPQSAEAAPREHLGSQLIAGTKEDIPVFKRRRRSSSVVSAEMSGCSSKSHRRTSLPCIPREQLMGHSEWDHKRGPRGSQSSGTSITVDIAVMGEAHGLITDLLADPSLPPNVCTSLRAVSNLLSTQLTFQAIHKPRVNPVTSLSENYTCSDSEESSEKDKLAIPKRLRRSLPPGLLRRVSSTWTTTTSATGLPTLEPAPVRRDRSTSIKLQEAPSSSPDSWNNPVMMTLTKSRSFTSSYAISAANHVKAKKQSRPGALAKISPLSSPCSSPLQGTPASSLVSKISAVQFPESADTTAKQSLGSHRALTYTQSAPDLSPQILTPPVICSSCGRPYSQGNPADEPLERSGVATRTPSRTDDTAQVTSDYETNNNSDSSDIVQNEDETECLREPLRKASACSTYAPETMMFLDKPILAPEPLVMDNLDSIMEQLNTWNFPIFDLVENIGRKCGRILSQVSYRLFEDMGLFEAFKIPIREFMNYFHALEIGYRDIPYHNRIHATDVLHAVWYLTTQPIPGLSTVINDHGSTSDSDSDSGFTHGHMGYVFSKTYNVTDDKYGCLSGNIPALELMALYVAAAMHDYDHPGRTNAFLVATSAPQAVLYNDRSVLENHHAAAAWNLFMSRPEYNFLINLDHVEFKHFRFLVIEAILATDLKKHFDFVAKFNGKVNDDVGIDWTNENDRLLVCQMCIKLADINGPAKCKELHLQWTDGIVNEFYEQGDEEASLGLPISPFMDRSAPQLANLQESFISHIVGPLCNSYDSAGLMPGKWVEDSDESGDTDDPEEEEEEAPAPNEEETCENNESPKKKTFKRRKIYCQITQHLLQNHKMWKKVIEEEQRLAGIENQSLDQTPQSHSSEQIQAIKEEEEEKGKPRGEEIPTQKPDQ

SMILES: CCOc1cc(C(CS(C)(=O)=O)N2C(=O)c3cccc(NC(C)=O)c3C2=O)ccc1OC (single isomer, unassigned; (+)) [Compound A, (+)-2-[1-(3-ethoxy-4-methoxyphenyl)-2-methylsulfonylethyl]-4-acetylaminoisoindoline-1,3-dione]
- IC50 [1]: 77 nM
- PDE Specificity Ratio PDE4/PDE3 ([2]; from above data): >1200 fold
- inhibition at 10 µM ([2]; read-out: PDE3 (% inhib at 10 µM)): 20%
- Ataxia ([3]; 0.1 mg/kg oral): None
- Backward walking ([3]; 0.1 mg/kg oral): Mild (3/5)
- Flattened posture ([3]; 0.1 mg/kg oral): Mild (2/5)
- Lip licking ([3]; 0.1 mg/kg oral): Mild (4/5)
- Mouth clawing ([3]; 0.1 mg/kg oral): None
- Panting ([3]; 0.1 mg/kg oral): None
- Retches ([3]; 0.1 mg/kg oral): None
- Salivation ([3]; 0.1 mg/kg oral): None
- Vomits ([3]; 0.1 mg/kg oral): None
- Ataxia ([3]; 0.3 mg/kg oral): None
- Backward walking ([3]; 0.3 mg/kg oral): Mild (4/6)
- Flattened posture ([3]; 0.3 mg/kg oral): Mild (2/6)
- Lip licking ([3]; 0.3 mg/kg oral): Mild (3/6)
- Mouth clawing ([3]; 0.3 mg/kg oral): None
- Panting ([3]; 0.3 mg/kg oral): None
- Retches ([3]; 0.3 mg/kg oral): None
- Salivation ([3]; 0.3 mg/kg oral): None
- Vomits ([3]; 0.3 mg/kg oral): None
- Ataxia ([3]; 1.0 mg/kg oral): None
- Backward walking ([3]; 1.0 mg/kg oral): Mild (4/6)
- Flattened posture ([3]; 1.0 mg/kg oral): Mild (2/6)
- Lip licking ([3]; 1.0 mg/kg oral): Mild (6/6)
- Mouth clawing ([3]; 1.0 mg/kg oral): None
- Panting ([3]; 1.0 mg/kg oral): None
- Retches ([3]; 1.0 mg/kg oral): None
- Salivation ([3]; 1.0 mg/kg oral): None
- Vomits ([3]; 1.0 mg/kg oral): None
- Ataxia ([3]; 3.0 mg/kg oral): None
- Backward walking ([3]; 3.0 mg/kg oral): Moderate (5/8)
- Flattened posture ([3]; 3.0 mg/kg oral): Marked (7/8)
- Lip licking ([3]; 3.0 mg/kg oral): Mild (2/8)
- Mouth clawing ([3]; 3.0 mg/kg oral): Mild (1/8)
- Panting ([3]; 3.0 mg/kg oral): None
- Retches ([3]; 3.0 mg/kg oral): None
- Salivation ([3]; 3.0 mg/kg oral): None
- Vomits ([3]; 3.0 mg/kg oral): None
- Ataxia ([3]; 10 mg/kg oral): None
- Backward walking ([3]; 10 mg/kg oral): Marked (6/6)
- Flattened posture ([3]; 10 mg/kg oral): Marked (6/6)
- Lip licking ([3]; 10 mg/kg oral): Moderate (5/6)
- Mouth clawing ([3]; 10 mg/kg oral): Mild (1/6)
- Panting ([3]; 10 mg/kg oral): None
- Salivation ([3]; 10 mg/kg oral): Mild (1/6)
- Vomits ([3]; 10 mg/kg oral): None
- behavioral changes (severity) ([3]; 10 mg/kg, p.o.): mild or moderate
- emetic episodes (retching and vomiting) ([3]; 10 mg/kg, p.o., in 2/6 ferrets): some retching but no frank emesis
- Ataxia ([3]; 30 mg/kg oral): Mild (3/4)
- Backward walking ([3]; 30 mg/kg oral): Mild (2/4)
- Flattened posture ([3]; 30 mg/kg oral): Marked (4/4)
- Lip licking ([3]; 30 mg/kg oral): Moderate (4/4)
- Mouth clawing ([3]; 30 mg/kg oral): Marked (4/4)
- Panting ([3]; 30 mg/kg oral): Mild (1/4)
- Retches ([3]; 30 mg/kg oral): Marked (3/4)
- Salivation ([3]; 30 mg/kg oral): Moderate (3/4)
- Vomits ([3]; 30 mg/kg oral): Moderate (3/4)
- behavioral changes (severity) ([3]; 30 mg/kg, p.o.): pronounced behavioral changes
- emetic episodes (retching and vomiting) ([3]; 30 mg/kg, p.o., in 3/4 animals): moderate to marked emesis
- emetic episodes (retching and vomiting) ([3]; 0.1-3 mg/kg, p.o.): no emetic episodes
- behavioral changes (severity) ([3]; 0.1-3 mg/kg, p.o., flattened posture, lip licking and backward walking): mild
- Threshold emetic dose ([3]; conscious ferret, p.o.): 10 mg/kg
- Therapeutic index ([3]; threshold emetic dose divided by ED50 for pulmonary neutrophilia): 12

Reference: patent publication EP2276483B1, “SOLID FORMS COMPRISING (+)-2-[1-(3-ETHOXY-4-METHOXYPHENYL)-2-METHYLSULFONYLETHYL]-4-ACETYLAMINOISOINDOLINE-1,3-DIONE, COMPOSITIONS THEREOF, AND USES THEREOF” (CELGENE CORPORATION, priority 2008, dated 2009)
